We go through 1 compound from patent publication US20130261188A1, “Ibuprofen Solid Oral Dosage Composition Comprising a Methacrylic Acid Copolymer” (TEIKOKU PHARMA USA, INC., priority 2012, published 2013).

This data set in a line: Solubility of ibuprofen in simulated salivary fluid (excess ibuprofen, sonication, centrifugation, HPLC). Type of data set: physicochemical. Particulars: fassgf or other biorelevant, thermodynamic from solid, simulated salivary fluid (19 mM phosphate buffer, 150 mM sodium chloride, pH 6.75), sonicated approximately 1 hour, centrifuged. On the procedure: In addition, solubility of ibuprofen was evaluated by adding an excess of ibuprofen to simulated salivary fluid and sonicating for approximately 1 hour. The solution was then centrifuged and injected onto the HPLC.

Values after ≈ are worked out from the molar mass of the structure shown.

The compound `CC(C)Cc1ccc(C(C)C(=O)O)cc1` (stereo not shown) [ibuprofen, 2-(p-isobutylphenyl)propionic acid] came in with a solubility of 1800 µg/mL (≈ 8.73 mM).

The solubility is the concentration that dissolves in the medium under given conditions. Read a high solubility as much dissolved substance.
